According to patent US12077503B2, “Substituted cyclic amides and their use as herbicides” (FMC CORPORATION, priority 2015, dated 2024):

Assays:
Format in all cases: in vivo
[1] = system: barnyardgrass (Echinochloa crus-galli); assay: Test G Pre-Emergence Protocol; details: Echinochloa crus-galli, pre-emergence, 312 h, evaluated after 13 days
In short: (§1)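 Spraying took place one day after sowing, at 15.625, 62.5 or 250 g/ha, using an acetone/water (50:50) spray solution containing 0.5% Tween 20. Plants were kept under glasshouse conditions (24/16 °C, 14 h light, 65% humidity, watered twice daily), and injury was rated 0–100 at day 13.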

[2] = system: redroot pigweed (Amaranthus retroflexus); assay: Test G Pre-Emergence Protocol; details: Amaranthus retroflexus, pre-emergence, 312 h, evaluated after 13 days
In short: as §1

[3] = system: ivy-leaved morning glory (Ipomoea hederacea); assay: Test G Pre-Emergence Protocol; details: Ipomoea, pre-emergence, 312 h, evaluated after 13 days
In short: as §1

[4] = system: corn (Zea mays); assay: Test G Pre-Emergence Protocol; details: Zea mays, pre-emergence, 312 h, evaluated after 13 days
In short: as §1

[5] = system: giant foxtail (Setaria faberi); assay: Test G Pre-Emergence Protocol; details: Setaria faberi, pre-emergence, 312 h, evaluated after 13 days
In short: as §1

[6] = system: velvetleaf (Abutilon theophrasti); assay: Test G Pre-Emergence Protocol; details: Abutilon theophrasti, pre-emergence, 312 h, evaluated after 13 days
In short: as §1

[7] = system: barnyardgrass (Echinochloa crus-galli); assay: Test G Post-Emergence Protocol; details: Echinochloa crus-galli, post-emergence, 312 h, read-out: Barnyardgrass damage rating
In short: (§2)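 Damage was rated 13 days after treatment from 0 (none) to 100 (plant killed). Compound was applied as a spray at 15.625, 62.5 or 250 g/ha in 50:50 acetone/water containing 0.5% Tween 20, onto 8-day-old potted plants kept in a glasshouse (24/16 °C, 14 h light, 65% humidity).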

[8] = system: redroot pigweed (Amaranthus retroflexus); assay: Test G Post-Emergence Protocol; details: Amaranthus retroflexus, post-emergence, 312 h, read-out: Pigweed, Redroot damage rating
In short: as §2

[9] = system: ivy-leaved morning glory (Ipomoea hederacea); assay: Test G Post-Emergence Protocol; details: Ipomoea, post-emergence, 312 h, read-out: Morningglory, Ivy-leaved damage rating
In short: as §2

[10] = system: corn (Zea mays); assay: Test G Post-Emergence Protocol; details: Zea mays, post-emergence, 312 h, read-out: Corn damage rating
In short: as §2

[11] = system: giant foxtail (Setaria faberi); assay: Test G Post-Emergence Protocol; details: Setaria faberi, post-emergence, 312 h, read-out: Foxtail, Giant damage rating
In short: as §2

[12] = system: velvetleaf (Abutilon theophrasti); assay: Test G Post-Emergence Protocol; details: Abutilon theophrasti, post-emergence, 312 h, read-out: Velvetleaf damage rating
In short: as §2

[13] = 15.625 g ai/ha, evaluated after 13 days (100=total damage to plant; 0=no damage to plant)
[14] = 62.5 g ai/ha, evaluated after 13 days, 100=total damage to plant, 0=no damage to plant
[15] = 250 g ai/ha, evaluated after 13 days, 100=total damage to plant, 0=no damage to plant

## Cc1nc(F)ccc1NC(=O)[C@@H]1C(=O)N(C)C[C@H]1c1ccc(C(F)(F)F)cc1 (racemic) [Compound 1654]
[1]; 15.625 g ai/ha, read-out: Barnyardgrass damage rating (100=total damage to plant; 0=no damage to plant)
  pest or weed control at 15.625 g/ha: 0%
[1]; 62.5 g ai/ha, 100=total damage to plant, 0=no damage to plant, read-out: Barnyardgrass damage rating
  pest or weed control at 62.5 g/ha: 0%
[1]; 250 g ai/ha, read-out: Barnyardgrass damage rating (100=total damage to plant; 0=no damage to plant)
  pest or weed control at 250 g/ha: 80%
[2]; 15.625 g ai/ha, read-out: Pigweed, Redroot damage rating (100=total damage to plant; 0=no damage to plant)
  pest or weed control at 15.625 g/ha: 0%
[2]; 62.5 g ai/ha, 100=total damage to plant, 0=no damage to plant, read-out: Pigweed, Redroot damage rating
  pest or weed control at 62.5 g/ha: 0%
[2]; 250 g ai/ha, read-out: Pigweed, Redroot damage rating (100=total damage to plant; 0=no damage to plant)
  pest or weed control at 250 g/ha: 0%
[3]; 15.625 g ai/ha, read-out: Morningglory, Ivy-leaved damage rating (100=total damage to plant; 0=no damage to plant)
  pest or weed control at 15.625 g/ha: 0%
[3]; 62.5 g ai/ha, 100=total damage to plant, 0=no damage to plant, read-out: Morningglory, Ivy-leaved damage rating
  pest or weed control at 62.5 g/ha: 0%
[4]; 15.625 g ai/ha, read-out: Corn damage rating (100=total damage to plant; 0=no damage to plant)
  plant injury at 15.625 g/ha: 0%
[4]; 62.5 g ai/ha, 100=total damage to plant, 0=no damage to plant, read-out: Corn damage rating
  plant injury at 62.5 g/ha: 0%
[4]; 250 g ai/ha, read-out: Corn damage rating (100=total damage to plant; 0=no damage to plant)
  plant injury at 250 g/ha: 20%
[5]; 15.625 g ai/ha, read-out: Foxtail, Giant damage rating (100=total damage to plant; 0=no damage to plant)
  pest or weed control at 15.625 g/ha: 20%
[5]; 62.5 g ai/ha, 100=total damage to plant, 0=no damage to plant, read-out: Foxtail, Giant damage rating
  pest or weed control at 62.5 g/ha: 60%
[5]; 250 g ai/ha, read-out: Foxtail, Giant damage rating (100=total damage to plant; 0=no damage to plant)
  pest or weed control at 250 g/ha: 90%
[6]; 15.625 g ai/ha, read-out: Velvetleaf damage rating (100=total damage to plant; 0=no damage to plant)
  pest or weed control at 15.625 g/ha: 0%
[6]; 62.5 g ai/ha, 100=total damage to plant, 0=no damage to plant, read-out: Velvetleaf damage rating
  pest or weed control at 62.5 g/ha: 0%
[6]; 250 g ai/ha, read-out: Velvetleaf damage rating (100=total damage to plant; 0=no damage to plant)
  pest or weed control at 250 g/ha: 10%
[7]; [13]
  pest or weed control at 15.625 g/ha: 0%
[7]; [14]
  pest or weed control at 62.5 g/ha: 20%
[7]; [15]
  pest or weed control at 250 g/ha: 60%
[8]; [13]
  pest or weed control at 15.625 g/ha: 10%
[8]; [14]
  pest or weed control at 62.5 g/ha: 20%
[8]; [15]
  pest or weed control at 250 g/ha: 30%
[9]; [13]
  pest or weed control at 15.625 g/ha: 10%
[9]; [14]
  pest or weed control at 62.5 g/ha: 20%
[9]; [15]
  pest or weed control at 250 g/ha: 30%
[10]; [13]
  plant injury at 15.625 g/ha: 0%
[10]; [14]
  plant injury at 62.5 g/ha: 0%
[10]; [15]
  plant injury at 250 g/ha: 20%
[11]; [13]
  pest or weed control at 15.625 g/ha: 20%
[11]; [14]
  pest or weed control at 62.5 g/ha: 40%
[11]; [15]
  pest or weed control at 250 g/ha: 80%
[12]; [13]
  pest or weed control at 15.625 g/ha: 0%
[12]; [14]
  pest or weed control at 62.5 g/ha: 20%
[12]; [15]
  pest or weed control at 250 g/ha: 40%
